In patent US20140047570A1, “ANIMAL MODEL OF HUMAN CANCER AND METHODS OF USE” (H. LEE MOFFITT CANCER CENTER AND RESEARCH INSTITUTE, INC., priority 2011, published 2014):

Test system: liver tumor of human pancreatic cancer
Test: Diffusion MRI analysis of tumor response to drug treatment in vivo (liver xenograft)
Details: human pancreatic cancer tumor implanted in mouse liver; intraperitoneally 1 mg/kg/d; before vs 24 hours after initiation of treatment; FIG. 4C
Excerpt: FIGS. 4A-D show MRI analysis to assess tumor response to drug treatment in vivo. To evaluate tumor response to treatment in vivo in addition to US imaging technologies such as MRI that utilizes anatomical MRI, diffusion MRI, spectroscopy and Dynamic Contrast Enhanced (DCE) MRI can be used. Of these, diffusion, spectroscopy and DCE show great promise in determining early response to drug treatment, even before changes in tumor volume are observed. Anatomical and diffusion MRI techniques were used on the same liver tumor of human pancreatic cancer before (FIG. 4A) and 24 hours after (FIG. 4B) the initiation of gemcitabine (intraperitoneally 1 mg/kg/d) treatment. […] Laparoscopy or laparotomy can be used to assess tumor growth and to harvest tumor cells in liver (FIG. 4D).

Nc1ccn([C@@H]2O[C@H](CO)[C@@H](O)C2(F)F)c(=O)n1 [gemcitabine]
tumor water diffusion by diffusion MRI (early response to drug treatment): right shift in tumor water diffusion
